Assay [1] has as its target SREBP-2 (Homo sapiens (Human), UniProt Q12772). In words: In vitro assay SREBP-2: PathHunter U2OS SREBP-2 Nuclear Translocation Cell Line, U18666A-stimulated. Type of assay: cell-based. Conditions: PathHunter U2OS SREBP-2 nuclear translocation cells, U18666A 10 μM, overnight (16 hours).
Assay [2] addresses LXRβ (Homo sapiens (Human), UniProt P55055). The assay is described as follows: In vitro assay LXRβ: PathHunter NHR CHO cells, LXRβ / Steroid Receptor Co-activator Peptide enzyme fragment complementation. Type of assay: cell-based. Conditions: PathHunter NHR CHO cells, full-length human LXRβ and SRCP, chemiluminescent signal; read-out: LXRβ PPI. Summed up:
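Enzyme fragment complementation read-out: CHO cells stably expressing ProLink-tagged full-length human LXRβ plus nuclear enzyme acceptor–SRCP fusion, seeded and held overnight at 37° C. Medium with charcoal-dextran filtered serum; final vehicle 1%. Chemiluminescence measured after signal generation.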

Each structure is given as a SMILES string.

Consider 18 compounds from patent US20230340011A1 (Asteroid Therapeutics, priority 2022, published 2023).

LXRβ, sequence (P55055 whole entry, the tested form may be a part): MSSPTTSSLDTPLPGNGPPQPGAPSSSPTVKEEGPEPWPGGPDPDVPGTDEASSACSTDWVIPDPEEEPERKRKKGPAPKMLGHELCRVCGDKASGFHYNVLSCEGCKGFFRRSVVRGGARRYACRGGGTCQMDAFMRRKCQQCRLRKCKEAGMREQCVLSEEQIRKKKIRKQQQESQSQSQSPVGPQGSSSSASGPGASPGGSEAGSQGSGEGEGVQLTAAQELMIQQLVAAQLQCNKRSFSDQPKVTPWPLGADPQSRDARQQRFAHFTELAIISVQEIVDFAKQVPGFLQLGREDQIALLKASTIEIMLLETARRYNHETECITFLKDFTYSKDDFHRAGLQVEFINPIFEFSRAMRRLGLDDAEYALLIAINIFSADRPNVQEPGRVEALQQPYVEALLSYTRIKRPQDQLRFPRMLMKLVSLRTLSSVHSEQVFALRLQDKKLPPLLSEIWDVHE

`C[C@H](CCc1ncccc1Cl)[C@H]1CC[C@H]2[C@@H]3CC=C4C[C@@H](O)CC[C@]4(C)[C@H]3CC[C@]12C` [Example 184, bis((1R,3aS,3bS,7S,9aR,9bS,11aR)-1-[(2R)-4-(3-chloropyridin-2-yl)butan-2-yl]-9a,11a-dimethyl-1H,2H,3H,3aH,3bH,4H,6H,7H,8H,9H,9aH,9bH,10H,11H,11aH-cyclopenta[a]phenanthren-7-ol)] returned an IC50 in assay [1] of less than 250 nM. The EC50 in assay [2] lay within 1 to 10 µM.
In turn, `COC(=O)N1CCN(C(=O)CC[C@@H](C)[C@H]2CC[C@H]3[C@@H]4CC=C5C[C@@H](O)CC[C@]5(C)[C@H]4CC[C@]23C)[C@@H](C)C1` [Example 579, Methyl(S)-4-((R)-4-((3S,8S,9S,10R,13R,14S,17R)-3-hydroxy-10,13-dimethyl-2,3,4,7,8,9,10,11,12,13,14,15,16,17-tetradecahydro-1H-cyclopenta[a]phenanthren-17-yl)pentanoyl)-3-methylpiperazine-1-carboxylate] had an IC50 in assay [1] of less than 250 nM. In addition, the EC50 in assay [2] is more than 10 µM.
In the same order, the values of `C[C@H](CCC(=O)N1CCC(C(F)(F)F)CC1)[C@H]1CC[C@H]2[C@@H]3CC=C4C[C@@H](O)CC[C@]4(C)[C@H]3CC[C@]12C` [Example 82, (R)-4-((3S,8S,9S,10R,13R,14S,17R)-3-hydroxy-10,13-dimethyl-2,3,4,7,8,9,10,11,12,13,14,15,16,17-tetradecahydro-1H-cyclopenta[a]phenanthren-17-yl)-1-(4-(trifluoromethyl)piperidin-1-yl)pentan-1-one] are less than 250 nM and more than 10 µM.
On the same counts, the results for `C[C@H](OC(=O)C(=O)N1CCCCC1)[C@H]1CC[C@H]2[C@@H]3CC=C4C[C@@H](O)CC[C@]4(C)[C@H]3CC[C@]12C` [Example 199, (1S)-1-[(1S,3aS,3bS,7S,9aR,9bS,11aS)-7-hydroxy-9a,11a-dimethyl-1H,2H,3H,3aH,3bH,4H,6H,7H,8H,9H,9aH,9bH,10H,11H,11aH-cyclopenta[a]phenanthren-1-yl]ethyl2-oxo-2-(piperidin-1-yl)acetate] are less than 250 nM and 0.25 to 1 µM.
In the same order, the values of `CCN(CC)C(=O)N1CCN(C(=O)CC[C@@H](C)[C@H]2CC[C@H]3[C@@H]4CC=C5C[C@@H](O)CC[C@]5(C)[C@H]4CC[C@]23C)CC1` [Example 212, N,N-diethyl-4-((R)-4-((3S,8S,9S,10R,13R,14S,17R)-3-hydroxy-10,13-dimethyl-2,3,4,7,8,9,10,11,12,13,14,15,16,17-tetradecahydro-1H-cyclopenta[a]phenanthren-17-yl)pentanoyl)piperazine-1-carboxamide] are less than 250 nM and more than 10 µM.
`C[C@H](CCC(=O)N1C[C@@H]2C[C@]2(c2ccccc2)C1)[C@H]1CC[C@H]2[C@@H]3CC=C4C[C@@H](O)CC[C@]4(C)[C@H]3CC[C@]12C` [Example 78, (4R)-4-((3S,8S,9S,10R,13R,14S,17R)-3-hydroxy-10,13-dimethyl-2,3,4,7,8,9,10,11,12,13,14,15,16,17-tetradecahydro-1H-cyclopenta[a]phenanthren-17-yl)-1-(1-phenyl-3-azabicyclo[3.1.0]hexan-3-yl)pentan-1-one]: in assay [1], the IC50 was less than 250 nM. Moreover, in assay [2], the EC50 was in the range of 1 to 10 µM.
In turn, `C[C@H](CCC(=O)N1CCN(C(=O)c2cn(C)cn2)CC1)[C@H]1CC[C@H]2[C@@H]3CC=C4C[C@@H](O)CC[C@]4(C)[C@H]3CC[C@]12C` [Example 538, (4R)-4-[(1R,3aS,3bS,7S,9aR,9bS,11aR)-7-hydroxy-9a,11a-dimethyl-1H,2H,3H,3aH,3bH,4H,6H,7H,8H,9H,9aH,9bH,10H,11H,11aH-cyclopenta[a]phenanthren-1-yl]-1-[4-(1-methyl-1H-imidazole-4-carbonyl)piperazin-1-yl]pentan-1-one] displayed an IC50 in assay [1] of less than 250 nM. Also, the EC50 in assay [2] is more than 10 µM.
In the same order, the values of `Cc1ncncc1CC[C@@H](C)[C@H]1CC[C@H]2[C@@H]3CC=C4C[C@@H](O)CC[C@]4(C)[C@H]3CC[C@]12C` [Example 188, (3S,8S,9S,10R,13R,14S,17R)-10,13-dimethyl-17-((R)-4-(4-methylpyrimidin-5-yl)butan-2-yl)-2,3,4,7,8,9,10,11,12,13,14,15,16,17-tetradecahydro-1H-cyclopenta[a]phenanthren-3-ol] are less than 250 nM and 1 to 10 µM.
On the same counts, the results for `CC(=O)N[C@@H]1CCN(C(=O)CC[C@@H](C)[C@H]2CC[C@H]3[C@@H]4CC=C5C[C@@H](O)CC[C@]5(C)[C@H]4CC[C@]23C)C1` [Example 324, N-[(3R)-1-[(4R)-4-[(1R,3aS,3bS,7S,9aR,9bS,11aR)-7-hydroxy-9a,11a-dimethyl-1H,2H,3H,3aH,3bH,4H,6H,7H,8H,9H,9aH,9bH,10H,11H,11aH-cyclopenta[a]phenanthren-1-yl]pentanoyl]pyrrolidin-3-yl]acetamide] are 250 to 1000 nM and more than 10 µM.
On the same counts, the results for `C[C@H](CCC(=O)N1CCN(C(=O)c2nnnn2C)CC1)[C@H]1CC[C@H]2[C@@H]3CC=C4C[C@@H](O)CC[C@]4(C)[C@H]3CC[C@]12C` [Example 363, (R)-4-((3S,8S,9S,10R,13R,14S,17R)-3-hydroxy-10,13-dimethyl-2,3,4,7,8,9,10,11,12,13,14,15,16,17-tetradecahydro-1H-cyclopenta[a]phenanthren-17-yl)-1-(4-(1-methyl-1H-tetrazole-5-carbonyl)piperazin-1-yl)pentan-1-one] are less than 250 nM and more than 10 µM.
As for `CC(=N)N1CCN(C(=O)CC[C@@H](C)[C@H]2CC[C@H]3[C@@H]4CC=C5C[C@@H](O)CC[C@]5(C)[C@H]4CC[C@]23C)CC1` [Example 245, (R)-4-((3S,8S,9S,10R,13R,14S,17R)-3-hydroxy-10,13-dimethyl-2,3,4,7,8,9,10,11,12,13,14,15,16,17-tetradecahydro-1H-cyclopenta[a]phenanthren-17-yl)-1-(4-(1-iminoethyl)piperazin-1-yl)pentan-1-one], the IC50 in assay [1] lay within 250 to 1000 nM. Further, in assay [2], the EC50 was more than 10 µM.
`C[C@H](COc1ccccn1)[C@H]1CC[C@H]2[C@@H]3CC=C4C[C@@H](O)CC[C@]4(C)[C@H]3CC[C@]12C` [Example 179, (3S,8S,9S,10R,13S,14S,17R)-10,13-dimethyl-17-((S)-1-(pyridin-2-yloxy)propan-2-yl)-2,3,4,7,8,9,10,11,12,13,14,15,16,17-tetradecahydro-1H-cyclopenta[a]phenanthren-3-ol] yielded a 50% inhibitory concentration (IC50) in assay [1] of less than 250 nM. Moreover, in assay [2], the EC50 is more than 10 µM.
As for `C[C@H](CCC(=O)N1CCNS(=O)(=O)CC1)[C@H]1CC[C@H]2[C@@H]3CC=C4C[C@@H](O)CC[C@]4(C)[C@H]3CC[C@]12C` [Example 354, 5-[(4R)-4-[(1R,3aS,3bS,7S,9aR,9bS,11aR)-7-hydroxy-9a,11a-dimethyl-1H,2H,3H,3aH,3bH,4H,6H,7H,8H,9H,9aH,9bH,10H,11H,11aH-cyclopenta[a]phenanthren-1-yl]pentanoyl]-1λ^6,2,5-thiadiazepane-1,1-dione], the IC50 in assay [1] was less than 250 nM. For the same compound, the EC50 in assay [2] is more than 10 µM.
On the same counts, the results for `C[C@H](CCC(=O)N1CCN(c2nccc3ccncc23)CC1)[C@H]1CC[C@H]2[C@@H]3CC=C4C[C@@H](O)CC[C@]4(C)[C@H]3CC[C@]12C` [Example 628, (R)-1-(4-(2,7-naphthyridin-1-yl)piperazin-1-yl)-4-((3S,8S,9S,10R,13R,14S,17R)-3-hydroxy-10,13-dimethyl-2,3,4,7,8,9,10,11,12,13,14,15,16,17-tetradecahydro-1H-cyclopenta[a]phenanthren-17-yl)pentan-1-one] are less than 250 nM and more than 10 µM.
For `C[C@H](CCC(=O)N1CCN(c2ccnnc2)CC1)[C@H]1CC[C@H]2[C@@H]3CC=C4C[C@@H](O)CC[C@]4(C)[C@H]3CC[C@]12C` [Example 487, (R)-4-((3S,8S,9S,10R,13R,14S,17R)-3-hydroxy-10,13-dimethyl-2,3,4,7,8,9,10,11,12,13,14,15,16,17-tetradecahydro-1H-cyclopenta[a]phenanthren-17-yl)-1-(4-(pyridazin-4-yl)piperazin-1-yl)pentan-1-one], the IC50 in assay [1] is less than 250 nM. In addition, the EC50 in assay [2] was more than 10 µM.
In the same order, the values of `C[C@H](CCC(=O)N1CCN(C(=O)c2cnccn2)C[C@@H]1C)[C@H]1CC[C@H]2[C@@H]3CC=C4C[C@@H](O)CC[C@]4(C)[C@H]3CC[C@]12C` [Example 581, (R)-4-((3S,8S,9S,10R,13R,14S,17R)-3-hydroxy-10,13-dimethyl-2,3,4,7,8,9,10,11,12,13,14,15,16,17-tetradecahydro-1H-cyclopenta[a]phenanthren-17-yl)-1-((S)-2-methyl-4-(pyrazine-2-carbonyl)piperazin-1-yl)pentan-1-one] are less than 250 nM and more than 10 µM.
On the same counts, the results for `Cc1ncsc1N1CCN(C(=O)CC[C@@H](C)[C@H]2CC[C@H]3[C@@H]4CC=C5C[C@@H](O)CC[C@]5(C)[C@H]4CC[C@]23C)CC1` [Example 607, (R)-4-((3S,8S,9S,10R,13R,14S,17R)-3-hydroxy-10,13-dimethyl-2,3,4,7,8,9,10,11,12,13,14,15,16,17-tetradecahydro-1H-cyclopenta[a]phenanthren-17-yl)-1-(4-(4-methylthiazol-5-yl)piperazin-1-yl)pentan-1-one] are less than 250 nM and more than 10 µM.
The compound `COc1cncnc1N1CCN(C(=O)CC[C@@H](C)[C@H]2CC[C@H]3[C@@H]4CC=C5C[C@@H](O)CC[C@]5(C)[C@H]4CC[C@]23C)CC1` [Example 204, (4R)-4-[(1R,3aS,3bS,7S,9aR,9bS,11aR)-7-hydroxy-9a,11a-dimethyl-1H,2H,3H,3aH,3bH,4H,6H,7H,8H,9H,9aH,9bH,10H,11H,11aH-cyclopenta[a]phenanthren-1-yl]-1-[4-(5-methoxypyrimidin-4-yl)piperazin-1-yl]pentan-1-one] gave an IC50 in assay [1] of less than 250 nM. Besides, in assay [2], the EC50 was more than 10 µM.
